Where a name gives a salt, the structure may show the parent alone.
Experiments:
[1] = tested on: human PRP (platelet rich plasma); assay: Pharmacological test 1: inhibition of ADP-induced platelet aggregation in human PRP; type: cell-based; conditions: ADP 5 μM inducer; for IC50: platelet aggregation
Description: Pharmacological test 1 Inhibition of platelet aggregation
The effect of the compound according to the present invention on inhibiting the platelet aggregation was examined with human PRP (platelet rich plasma).
Nine volumes of a blood sample was taken out of the vein of a normal human with a syringe in which one volume of a 3.8% sodium citrate solution was charged. The blood sample was centrifuged at 170×g at room temperature for 10 minutes. The supernatant thus obtained was isolated as PRP. The residual blood sample that PRP had been taken out was centrifuged at 2,700×g for 15 minutes. The supernatant was then taken as platelet poor plasma (PPP).
Platelet aggregation test was conducted with an aggligometer (PAM-8C; manufactured by MEBANICKS Co., Ltd.). Compounds to be tested were dissolved in a 50% DMSO saline, a 50% methanol saline or physiological saline. The compound and PRP were preincubated for 2 minutes. The ADP (CHRONO-PAR REAGENTS 384 ADP, CHRONO-LOG Corp.) was used as an inducer in the form of a dilution with saline so that the final concentration is 5 μM.
Anti-platelet aggregation activity was obtained as an inhibition rate to platelet aggregation effect of ADP in the absence of a compound to be tested as follows: [formula] Physiological test 2 Inhibition of fibrinogen bonding to platelet GPIIb/IIIa

[2] = molecular target: T1, human platelet GPIIb/IIIa (Homo sapiens, UniProt P05106+P08514); assay: Pharmacological test 2: inhibition of fibrinogen bonding to platelet GPIIb/IIIa (solid phase assay, biotinylated fibrinogen); type: binding
T1 construct: platelets collected from healthy adults; from tissue; host or cells: platelets from healthy adults (solubilized with octylglucoside, purified on GRGDSPK-Sepharose)
Description: Inhibiting effect of the compound according to the present invention on the binding of platelet GPIIb/IIIa and fibrinogen was examined with a solid phase human platelet GPIIb/IIIa bonding assay using biotinylated fibrinogen as a ligand. Human platelet GPIIb/IIIa was purified according to the method described by Pytela, R. et al. (Science, 231, 1559-1561 (1986)). […] The same amount of TBS containing 50 mM octylglucoside and 2 mM PMSF was added to the pellet obtained in order to solubilize the membrane protein at 4° C. for 20 minutes. […] The solubilized protein solution was adsorbed on a GRGDSPK-Sepharose column which had been equilibrated with TBS (Buffer A) containing 50 mM Octylglucoside, 1 mM CaCl2 and MgCl2. After the column was washed with Buffer A, the adsorbed GPIIb/IIIa was eluted with Buffer A containing 2 mM GRGDSP peptide. GRGDSPK-Sepharose was prepared by coupling GRGDSPK peptide and CNBr-activated Sepharose 4B (Pharmacia) according to the instruction of the manufacturer. Then, solid phase human platelet GPIIb/IIIa bonding assay was carried out according to the method of Mori et al. […] Purified human platelet GPIIb/IIIa was adjusted in an amount of 2 μg/ml and adsorbed in an amount of 50 μl on a 96 well-microtiter plate at 4° C. overnight. After washing with TBS containing 1 mM CaCl2 and 1 mM MgCl2, 100 μl of 1% bovine serum albumin was added, blocking was conducted at 4° C. overnight. […] After washing with TBS-Tween 20, 50 μl of peroxidase labelled avidin which had been diluted with TBS to 4,000 times was added. The reaction was continued for 20 minutes. […] A 50 μl portion of a 0.1M citrate buffer containing 0.05% NaN3 was added to stop the reaction, and absorbance at 415 nm was measured. The rate of Bonding inhibition was calculated from the following formula: [formula]

T1 sequence (P08514 32-887 limits assumed): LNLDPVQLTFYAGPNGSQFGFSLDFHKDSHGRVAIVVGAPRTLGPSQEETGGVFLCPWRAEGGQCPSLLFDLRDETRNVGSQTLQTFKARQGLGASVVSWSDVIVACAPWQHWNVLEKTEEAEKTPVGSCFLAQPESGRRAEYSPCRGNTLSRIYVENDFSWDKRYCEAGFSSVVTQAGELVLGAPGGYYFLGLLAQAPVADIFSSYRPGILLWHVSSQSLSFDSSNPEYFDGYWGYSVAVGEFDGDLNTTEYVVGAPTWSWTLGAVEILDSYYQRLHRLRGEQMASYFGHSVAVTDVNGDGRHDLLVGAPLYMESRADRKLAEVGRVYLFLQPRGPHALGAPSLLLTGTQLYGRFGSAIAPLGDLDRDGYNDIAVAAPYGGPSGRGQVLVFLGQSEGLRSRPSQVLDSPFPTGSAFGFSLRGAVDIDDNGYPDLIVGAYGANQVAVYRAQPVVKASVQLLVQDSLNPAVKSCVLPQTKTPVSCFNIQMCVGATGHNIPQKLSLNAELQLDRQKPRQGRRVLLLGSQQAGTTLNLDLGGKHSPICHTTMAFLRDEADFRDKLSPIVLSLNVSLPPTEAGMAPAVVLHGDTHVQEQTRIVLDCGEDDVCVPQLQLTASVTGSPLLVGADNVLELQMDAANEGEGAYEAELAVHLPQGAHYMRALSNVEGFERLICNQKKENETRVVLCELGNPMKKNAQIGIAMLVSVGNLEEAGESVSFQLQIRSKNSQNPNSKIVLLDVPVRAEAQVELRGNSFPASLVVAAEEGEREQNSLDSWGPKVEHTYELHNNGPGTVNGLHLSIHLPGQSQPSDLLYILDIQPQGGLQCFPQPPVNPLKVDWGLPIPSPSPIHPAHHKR
T1 sequence (P08514 891-1039 limits assumed): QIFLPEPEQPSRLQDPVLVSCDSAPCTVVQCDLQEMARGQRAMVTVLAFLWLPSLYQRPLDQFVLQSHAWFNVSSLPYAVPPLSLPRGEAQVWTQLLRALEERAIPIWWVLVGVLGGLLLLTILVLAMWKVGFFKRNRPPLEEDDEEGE
T1 sequence (P05106 27-788): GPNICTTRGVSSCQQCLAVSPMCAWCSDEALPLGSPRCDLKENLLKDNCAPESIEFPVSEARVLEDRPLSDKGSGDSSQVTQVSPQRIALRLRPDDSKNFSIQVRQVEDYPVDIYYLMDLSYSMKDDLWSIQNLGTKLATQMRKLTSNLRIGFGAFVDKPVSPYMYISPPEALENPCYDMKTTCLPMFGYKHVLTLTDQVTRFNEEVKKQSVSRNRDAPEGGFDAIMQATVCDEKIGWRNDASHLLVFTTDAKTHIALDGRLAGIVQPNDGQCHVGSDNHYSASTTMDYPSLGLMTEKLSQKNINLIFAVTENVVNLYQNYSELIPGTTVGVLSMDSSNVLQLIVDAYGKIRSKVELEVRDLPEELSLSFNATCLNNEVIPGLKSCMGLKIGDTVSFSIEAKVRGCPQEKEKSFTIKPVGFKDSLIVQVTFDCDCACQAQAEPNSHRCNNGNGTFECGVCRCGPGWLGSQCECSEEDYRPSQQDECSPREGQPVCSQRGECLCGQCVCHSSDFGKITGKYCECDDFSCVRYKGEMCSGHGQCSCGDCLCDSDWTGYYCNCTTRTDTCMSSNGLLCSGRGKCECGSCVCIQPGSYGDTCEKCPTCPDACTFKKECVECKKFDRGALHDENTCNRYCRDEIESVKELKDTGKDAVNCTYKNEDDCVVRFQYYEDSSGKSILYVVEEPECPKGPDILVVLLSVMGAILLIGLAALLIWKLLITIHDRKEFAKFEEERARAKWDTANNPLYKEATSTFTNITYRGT

| SMILES | IC50 ([1]; Homo sapiens, Platelet) [nM] | also measured |
| --- | --- | --- |
| CN(CC(=O)c1ccc(OCC(=O)O)c(OCC(=O)O)c1)C(=O)CCC1CCNCC1 [Example 9, [[4-[[N-[3-(piperidin-4-yl)propionyl]-N-methylamino]acetyl]-o-phenylene]dioxy]diacetic acid trifluoroacetate] |  | inhibition at 1 µM ([1]; Platelet, inhibition rate at 10^-6 M): 79%; inhibition at 0.1 µM ([2]; inhibition rate at 10^-7 M): 73% |
| CCOC(=O)COc1ccc(CCNC(=O)c2cc3c(s2)CCNC3)cc1OCC(=O)OCC [Example 33, Diethyl [[4-[[2-[(4,5,6,7-tetrahydrothieno[3,2-c]pyridin-2-yl)carbonyl]amino]ethyl]-o-phenylene]dioxy]diacetate trifluoroacetate] | 1700 |  |
| O=C(O)COc1ccc(CCNC(=O)c2cc3c(s2)CCNC3)cc1 [Example 39, 4-[2-[[(4,5,6,7-tetrahydrothieno[3,2-c]pyridin-2-yl)carbonyl]amino]ethyl]phenoxyacetic acid trifluoroacetate] | 260 |  |
| O=C(O)COc1ccc(C(=O)CNC(=O)c2sc3c(c2Cc2ccccc2)CNCC3)cc1OCC(=O)O [Example 28, [[4-[[[(3-benzyl-4,5,6,7-tetrahydrothieno[3.2-c]pyridin-2-yl)carbonyl]amino]acetyl]-o-phenylene]dioxy]diacetic acid trifluoroacetate] | > 10000 |  |
| O=C(O)COc1ccc(C(=O)CNC(=O)c2cc3c(s2)CCNC3)nc1 [Example 44, 2-[[4,5,6,7-tetrahydrothieno[3,2-c]pyridin-2-yl)carbonylamino]acetyl]pyridin-5-yloxyacetic acid trifluoroacetate] | 720 |  |
| O=C(O)COc1ccc(CCNCc2cc3c(s2)CCNC3)cc1OCC(=O)O [Example 40, [[4-[2-[N-[(4,5,6,7-tetrahydrothieno[3,2-c]pyridin-2-yl)methyl]amino]ethyl]-o-phenylene]dioxy]diacetic acid trifluoroacetate] | 4000 |  |
| O=C(O)COc1ccc(C(=O)CNC(=O)c2cc3c(s2)CCNCC3)cc1OCC(=O)O [Example 31, [[4-[[[(5,6,7,8-tetrahydro-4H-thieno[2,3-d]azepin-2-yl)carbonyl]amino]acetyl]-o-phenylene]dioxy]diacetic acid trifluoroacetate] | 150 |  |
| CN(CC(=O)c1ccc(OCC(=O)O)c(OCC(=O)O)c1)C(=O)CC1CCNCC1 [Example 37, [[4-[[N-[2-(piperidin-4-yl)acetyl]-N-methylamino]acetyl]-o-phenylene]dioxy]diacetic acid trifluoroacetate] | 4900 |  |
| O=C(O)COc1ccc(C(O)CNC(=O)c2cc3c(s2)CCNC3)cc1OCC(=O)O (centres unmarked) [Example 45, [[4-[[2-[(4,5,6,7-tetrahydrothieno[3,2-c]pyridin-2-yl)carbonyl]amino]-1-hydroxyethyl]-o-phenylene]dioxy]diacetic acid trifluoroacetate] | 460 |  |
| CC(=O)N(CCc1ccc(OCC(=O)O)c(OCC(=O)O)c1)Cc1cc2c(s1)CCNC2 [Example 41, [[4-[2-[N-[(4,5,6,7-tetrahydrothieno[3,2-c]pyridin-2-yl)methyl]-N-acetylamino]ethyl]-o-phenylene]dioxy]diacetic acid trifluoroacetate] | 3300 |  |
| O=C(O)COc1ccc(C(=O)CNC(=O)c2cc3c(s2)CCNC3)c(OCC(=O)O)c1 [Example 25, [[4-[[[(4,5,6,7-tetrahydrothieno[3.2-c]pyridin-2-yl)carbonyl]amino]acetyl]-m-phenylene]dioxy]diacetic acid trifluoroacetate] | 1500 |  |
| O=C(O)CCc1ccc(C(=O)CNC(=O)c2cc3c(s2)CCNC3)cc1 [Example 20, 3-[4-[[(4,5,6,7-tetrahydrothieno[3,2-c]pyridin-2-yl)carbonyl]aminoacetyl]phenyl]propionic acid trifluoroacetate] |  | IC50 ([2]; fibrinogen bonding to GPIIb/IIIa): 34000 nM |
| O=C(O)COc1ccc(-c2nc(C(=O)c3cc4c(s3)CCNC4)cs2)cc1 [Example 47, 4-[[4-(4,5,6,7-tetrahydrothieno[3,2-c]pyridin-2-yl)carbonyl]thiazol-2-yl]phenoxyacetic acid trifluoroacetate] | 6400 |  |
| COc1cc(C(=O)CNC(=O)c2cc3c(s2)CCNC3)ccc1OCC(=O)O [Example 26, 4-[[4,5,6,7-tetrahydrothieno[3.2-c]pyridin-2-yl)carbonyl]aminoacetyl]-2-methoxyphenoxyacetic acid trifluoroacetate] | 1000 |  |
| CN(CC(=O)c1ccc(OCC(=O)O)c(OCC(=O)O)c1)C(=O)[C@H]1CC[C@H](C(=N)N)CC1 [Example 58, [[4-[[[trans-4-amidinocyclohexyl]carbonyl-N-methylamino]acetyl]-o-phenylene]dioxy]diacetic acid trifluoroacetate] | 140 |  |
| CCOC(=O)COc1ccc(C(=O)CNC(=O)c2cc3c(s2)CCNC3)cc1OCC(=O)OCC [Example 34, Diethyl [[4-[[[(4,5,6,7-tetrahydrothieno[3,2-c]pyridin2-yl)carbonyl]amino]acetyl]-o-phenylene]dioxy]diacetate trifluoroacetate] | 930 |  |
| O=C(O)COc1ccc(C(=O)CNC(=O)c2cc3c(s2)CCNC3)cc1OCC(=O)O [Example 29, [[4-[[[(4,5,6,7-tetrahydrothieno[3.2-c]pyridin-2-yl)carbonyl]amino]acetyl]-o-phenylene]dioxy]diacetic acid trifluoroacetate] |  | IC50 [1]: 230 nM |
| O=C(COc1ccc(C(=O)CNC(=O)c2cc3c(s2)CCNC3)cc1OCC(=O)OC1CCCCC1)OC1CCCCC1 [Example 57, Dicyclohexyl [[4-[[[(4,5,6,7-tetrahydrothieno[3,2-c]pyridin-2-yl)carbonyl]amino]acetyl]-o-phenylene]dioxy]diacetate] | 3200 |  |
| O=C(O)COc1ccc(C(=O)NCC(=O)c2cc3c(s2)CCNC3)cc1OCC(=O)O [Example 32, [[4-[N-[(4,5,6,7-tetrahydrothieno[3,2-c]pyridin-2-yl)carbonyl]methyl]carbamoyl]-o-phenylene]dioxy]diacetic acid trifluoroacetate] | 480 |  |
| O=C(O)COc1ccc(-c2cnc(CCC3CCNCC3)o2)cc1OCC(=O)O [Example 43, [[4-[2-[2-(piperidin-4-yl)ethyl]oxazol-5-yl]-o-phenylene]dioxy]diacetic acid 1/2 sulfate] | 2800 |  |
| O=C(O)COc1ccc(C(=O)CNC(=O)CCCC2CCNCC2)cc1OCC(=O)O [Example 36, [[4-[[N-[4-(piperidin-4-yl)butyryl]amino]acetyl]-o-phenylene]dioxy]diaceticacid trifluoroacetate] | 9000 |  |
| O=C(O)CCc1ccc(C(=O)CNC(=O)CCC2CCNCC2)cc1 [Example 38, 3-[4-[N-[3-(piperidin-4-yl)propionyl]amino]acetyl]phenylpropionic acid trifluoroacetate] | 8000 |  |
| Cc1oc(=O)oc1COC(=O)COc1ccc(C(=O)CNC(=O)c2cc3c(s2)CCNC3)cc1OCC(=O)OCc1oc(=O)oc1C [Example 42, Di-(5-methyl-2-oxodioxol-4-yl)methyl [[4-[[(4,5,6,7-tetrahydrothieno[3,2-c]pyridin-2-yl)-carbonyl]amino]acetyl]-o-phenylene]dioxy]diacetic acid trifluoroacetate] | 340 |  |
| O=C(O)COc1ccc(C(=O)CNC(=O)c2cc3c(s2)CCCNC3)cc1OCC(=O)O [Example 30, [[4-[[[(5,6,7,8-tetrahydro-4H-thieno[3.2-c]azepin-2-yl)carbonyl]amino]acetyl]-o-phenylene]dioxy]diacetic acid trifluoroacetate] | 1900 |  |
| CCCCOC(=O)COc1ccc(C(=O)CNC(=O)c2cc3c(s2)CCNC3)cc1OCC(=O)OCCCC [Example 56, Di-n-butyl [[4-[[[(4,5,6,7-tetrahydrothieno [3,2-c]pyridin-2-yl)carbonyl]amino]acetyl]-o-phenylene]dioxy]diacetate trifluoroacetate] | 1100 |  |

Source: patent publication US5594004A, “Compound with platelet aggregation inhibitor activity” (Meiji Seika Kabushiki Kaisha, priority 1993, dated 1997)
